We go through 9 compounds from ChEMBL document CHEMBL4431383, “Structure-activity relationship of novel series of 1,5-disubstituted tetrazoles as cyclooxygenase-2 inhibitors: Design, synthesis, bioassay screening and molecular docking studies” (Bioorg Med Chem Lett, 2016).

Molecules are shown by their SMILES. Some results are limits rather than exact numbers.

In general, IC50 refers to the point on the concentration scale where inhibition reaches its midpoint.

The target in experiment [1] is T1, Prostaglandin G/H synthase 1 (Ovis aries, UniProt P05979).
T1 sequence (P05979 whole entry): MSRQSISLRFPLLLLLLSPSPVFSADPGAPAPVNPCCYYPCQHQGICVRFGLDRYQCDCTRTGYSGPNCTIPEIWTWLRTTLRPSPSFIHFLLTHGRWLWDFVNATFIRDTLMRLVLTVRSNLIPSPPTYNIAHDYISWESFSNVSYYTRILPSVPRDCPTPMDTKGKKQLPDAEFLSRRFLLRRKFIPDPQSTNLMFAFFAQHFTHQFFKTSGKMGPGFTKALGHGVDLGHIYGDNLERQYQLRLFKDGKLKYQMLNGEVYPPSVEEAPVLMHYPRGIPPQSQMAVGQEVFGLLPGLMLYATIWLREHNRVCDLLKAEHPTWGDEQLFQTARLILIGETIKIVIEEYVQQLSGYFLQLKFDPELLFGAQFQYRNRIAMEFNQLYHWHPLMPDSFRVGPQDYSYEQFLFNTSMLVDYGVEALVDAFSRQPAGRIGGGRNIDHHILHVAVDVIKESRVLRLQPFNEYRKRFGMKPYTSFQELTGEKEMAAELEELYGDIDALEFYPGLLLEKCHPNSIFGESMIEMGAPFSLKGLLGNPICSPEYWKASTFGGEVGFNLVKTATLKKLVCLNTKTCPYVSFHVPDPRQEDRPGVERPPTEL
Briefly: Inhibition of ovine COX1 assessed as PGH2 formation preincubated for 10 mins followed by addition of arachidonic acid as substrate measured after 2 mins by ELISA. On the technique in general: ELISA stands for enzyme-linked immunosorbent assay.

The target in experiment [2] is T2, Prostaglandin G/H synthase 2 (Homo sapiens, UniProt P35354).
T2 sequence (P35354 whole entry): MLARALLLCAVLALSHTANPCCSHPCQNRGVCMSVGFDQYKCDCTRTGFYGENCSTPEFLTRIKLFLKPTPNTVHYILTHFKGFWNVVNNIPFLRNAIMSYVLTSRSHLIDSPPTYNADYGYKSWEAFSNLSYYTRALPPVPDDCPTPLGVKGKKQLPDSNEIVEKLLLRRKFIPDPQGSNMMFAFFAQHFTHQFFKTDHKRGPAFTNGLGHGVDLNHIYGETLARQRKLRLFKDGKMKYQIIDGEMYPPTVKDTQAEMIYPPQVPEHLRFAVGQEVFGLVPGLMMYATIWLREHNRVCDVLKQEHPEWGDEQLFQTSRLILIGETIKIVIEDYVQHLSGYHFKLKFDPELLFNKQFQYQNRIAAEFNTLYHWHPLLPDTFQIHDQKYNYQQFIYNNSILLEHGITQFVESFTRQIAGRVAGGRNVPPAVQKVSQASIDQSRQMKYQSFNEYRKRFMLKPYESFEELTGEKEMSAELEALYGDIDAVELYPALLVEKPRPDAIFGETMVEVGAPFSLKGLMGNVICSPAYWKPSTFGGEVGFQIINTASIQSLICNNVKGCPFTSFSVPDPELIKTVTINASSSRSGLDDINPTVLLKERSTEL
Briefly: Inhibition of recombinant human COX2 assessed as PGH2 formation preincubated for 10 mins followed by addition of arachidonic acid as substrate measured after 2 mins by ELISA.

Experiment [3] is described as follows: Selectivity ratio of IC50 for ovine COX-1 to IC50 for recombinant human COX-2.
Experiment [4] is described as follows: Selectivity ratio of IC50 for recombinant human COX-2 to IC50 for ovine COX-1.

In the case of `NS(=O)(=O)c1ccc(-c2nnnn2-c2ccc(O)cc2)cc1`, the values for the IC50 in experiment [1] and in experiment [2] were 100 µM and more than 500 µM, respectively. Further, the Ratio IC50 in experiment [3] was more than 0.2.

On to `NS(=O)(=O)c1ccc(-c2nnnn2-c2ccc(CO)cc2)cc1`, for which the IC50 is 21 µM in experiment [1] and 24 µM in experiment [2]. For the same compound, the Ratio IC50 in experiment [4] came to 1.14; in experiment [3], 0.87.

On to `CS(=O)(=O)c1ccc(Cc2nnnn2-c2ccc(O)cc2)cc1`, for which the IC50 was 85 µM in experiment [1] and more than 200 µM in experiment [2]. In experiment [3], the Ratio IC50 was more than 0.42.

In the case of `CS(=O)(=O)c1ccc(-c2nnnn2-c2ccc(CCO)cc2)cc1`, the IC50 is more than 500 µM in experiment [1] and 70 µM in experiment [2]. Also, the Ratio IC50 in experiment [3] is more than 7.1.

Consider `CS(=O)(=O)c1ccc(Cc2nnnn2-c2ccc(CO)cc2)cc1`, for which the IC50 in experiment [1] is more than 200 µM; in experiment [2], 38 µM. For the same compound, the Ratio IC50 in experiment [4] was more than 0.19; in experiment [3], more than 5.2.

`CS(=O)(=O)c1ccc(Cc2nnnn2-c2ccc(CCO)cc2)cc1`: the IC50 was more than 200 µM in experiment [1] and 3 µM in experiment [2]. The Ratio IC50 is more than 0.015 in experiment [4] and more than 67 in experiment [3].

Take `CS(=O)(=O)c1ccc(-c2nnnn2-c2ccc(CO)cc2)cc1`: the IC50 is 9 µM in experiment [1] and more than 500 µM in experiment [2]. Also, the figures for the Ratio IC50 in experiment [4] and in experiment [3] were 55 and more than 0.02, respectively.

As to `CS(=O)(=O)c1ccc(-c2nnnn2-c2ccc(O)cc2)cc1`, the IC50 in experiment [1] is more than 500 µM; in experiment [2], more than 300 µM. Further, the Ratio IC50 in experiment [3] was more than 1.7.

Take `NS(=O)(=O)c1ccc(-c2nnnn2-c2ccc(CCO)cc2)cc1`: the IC50 in experiment [1] is more than 200 µM; in experiment [2], 99 µM. Further, in experiment [3], the Ratio IC50 was more than 2.
